Measurements published in ChEMBL document CHEMBL6092212, “Discovery of novel substituted (Z)-N'-hydroxy-3-(3-phenylureido)benzimidamide derivatives as multifunctional molecules targeting pathological hallmarks of Alzheimer's disease” (Eur J Med Chem, 2024).

What was measured:
[1] = biological target: T1, Acetylcholinesterase (Homo sapiens, UniProt P22303); assay: Inhibition of human AChE using ATCI as substrate preincubated for 30 mins followed by substrate addition measured after 30 mins by Ellman's method relative to control; design: concentration or dose not given beside the values; conditions: time 60.0 min
[2] = biological target: Cholinesterase (Equus caballus, UniProt P81908); assay: Inhibition of equine BChE using BTCI as substrate preincubated for 30 mins followed by substrate addition measured after 30 mins by Ellman's method
[3] = Antioxidant activity assessed as DPPH radical scavenging activity at 20 to 200 uM incubated for 30 mins by absorbance based analysis relative to control; format: functional; conditions: dose 20-200 µM
[4] = Antioxidant activity assessed as inhibition of DPPH radical scavenging activity incubated for 30 mins by absorbance based analysis; format: functional
[5] = biological target: T1, Acetylcholinesterase; assay: Inhibition of human AChE using ATCI as substrate preincubated for 30 mins followed by substrate addition measured after 30 mins by Ellman's method
[6] = biological target: Cholinesterase (Equus caballus) (UniProt P81908); assay: Inhibition of equine BChE using BTCI as substrate preincubated for 30 mins followed by substrate addition measured after 30 mins by Ellman's method relative to control
Sequence of Cholinesterase (Equus caballus) (P81908 whole entry): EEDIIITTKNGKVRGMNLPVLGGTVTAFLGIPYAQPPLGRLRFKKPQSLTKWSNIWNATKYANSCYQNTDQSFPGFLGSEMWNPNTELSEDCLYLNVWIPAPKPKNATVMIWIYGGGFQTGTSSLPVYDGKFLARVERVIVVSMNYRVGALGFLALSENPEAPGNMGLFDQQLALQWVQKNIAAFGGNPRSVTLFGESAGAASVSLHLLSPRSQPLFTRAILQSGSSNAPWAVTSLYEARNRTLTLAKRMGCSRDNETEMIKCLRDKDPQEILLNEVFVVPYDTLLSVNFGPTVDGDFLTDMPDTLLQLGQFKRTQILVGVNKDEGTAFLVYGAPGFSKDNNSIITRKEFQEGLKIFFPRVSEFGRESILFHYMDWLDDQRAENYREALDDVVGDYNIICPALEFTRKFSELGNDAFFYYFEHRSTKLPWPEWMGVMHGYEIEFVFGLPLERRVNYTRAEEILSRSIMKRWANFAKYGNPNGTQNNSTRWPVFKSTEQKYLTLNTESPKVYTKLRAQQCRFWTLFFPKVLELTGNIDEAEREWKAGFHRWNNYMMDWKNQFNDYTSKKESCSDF

Sequence of Cholinesterase (P81908 whole entry): as above
T1 sequence (P22303 whole entry): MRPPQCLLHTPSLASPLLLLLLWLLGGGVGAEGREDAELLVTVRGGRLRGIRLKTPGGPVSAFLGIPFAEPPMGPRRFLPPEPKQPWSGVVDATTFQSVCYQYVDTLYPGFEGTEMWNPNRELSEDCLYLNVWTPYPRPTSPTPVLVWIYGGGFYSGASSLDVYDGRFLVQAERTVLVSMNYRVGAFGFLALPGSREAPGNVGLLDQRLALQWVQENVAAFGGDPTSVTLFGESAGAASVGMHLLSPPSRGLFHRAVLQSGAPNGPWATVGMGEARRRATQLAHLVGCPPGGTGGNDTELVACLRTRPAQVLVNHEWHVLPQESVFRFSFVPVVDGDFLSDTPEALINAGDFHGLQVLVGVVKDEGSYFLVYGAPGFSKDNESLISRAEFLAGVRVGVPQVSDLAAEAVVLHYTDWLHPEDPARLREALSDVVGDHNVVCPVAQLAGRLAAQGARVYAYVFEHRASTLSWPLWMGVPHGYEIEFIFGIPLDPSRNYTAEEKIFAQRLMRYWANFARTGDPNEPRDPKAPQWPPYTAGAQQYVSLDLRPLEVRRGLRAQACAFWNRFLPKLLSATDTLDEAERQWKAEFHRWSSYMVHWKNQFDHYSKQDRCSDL

| Structure (SMILES) | IC50 [2] [µM] | IC50 [5] [µM] | also measured |
| --- | --- | --- | --- |
| N/C(=N\O)c1cccc(NC(=O)Nc2ccccc2)c1 | 17.5 | – | inhibition [1]: 47.9% |
| N/C(=N\O)c1cccc(NC(=O)Nc2ccc3ncccc3c2)c1 | – | – | Activity [3]: 42.9%; IC50 [4]: 18.4 µM |
| Cc1ccccc1NC(=O)Nc1ccc(/C(N)=N/O)cc1 | 16.9 | 8.57 | – |
| N/C(=N\O)c1cccc(NC(=O)Nc2ccc(C(F)(F)F)cc2)c1 | – | 12.2 | inhibition [6]: 47% |
| N/C(=N\O)c1cccc(NC(=O)Nc2ccccc2F)c1 | 11.3 | 18.6 | – |
| NC(=NO)c1cccc(NC(=O)Nc2ccc(F)cc2)c1 | 17.7 | 7.51 | – |
| NC(=NO)c1ccc(NC(=O)Nc2cccc(Br)c2)cc1 | 7.62 | 6.41 | – |
| COc1cccc(NC(=O)Nc2cccc(/C(N)=N/O)c2)c1 | 12.8 | 12.9 | – |
| N/C(=N\O)c1cccc(NC(=O)Nc2ccc(O)cc2)c1 | 14.4 | 16.3 | – |
| N/C(=N\O)c1cccc(NC(=O)NCCc2c[nH]c3ccccc23)c1 | 3.91 | 1.54 | – |
| N/C(=N\O)c1ccc(NC(=O)Nc2cccc(F)c2)cc1 | 8.08 | 3.04 | – |
| N/C(=N\O)c1cccc(NC(=O)Nc2ccc(Cl)cc2)c1 | 16.5 | 14.1 | – |
| NC(=NO)c1cccc(NC(=O)Nc2cccc(O)c2)c1 | 15.5 | 14.5 | – |
| NC(=NO)c1cccc(NC(=O)Nc2ccccc2C(F)(F)F)c1 | 17.1 | 18.3 | – |
| N/C(=N\O)c1cccc(NC(=O)Nc2ccccc2Br)c1 | – | – | inhibition [1]: 47.7%; inhibition [6]: 49.2% |
| N/C(=N\O)c1cccc(NC(=O)NCCc2c[nH]c3ccc(Cl)cc23)c1 | 3.1 | 1.16 | – |
| NC(=NO)c1cccc(NC(=O)Nc2ccc3ncccc3c2)c1 | 15.4 | 5.68 | – |
| NC(=NO)c1cccc(NC(=O)Nc2cccc([N+](=O)[O-])c2)c1 | 16.3 | 12.1 | – |

| Structure (SMILES) | IC50 [2] [µM] | IC50 [5] [µM] | also measured |
| --- | --- | --- | --- |
| O=c1c(O)c(-c2ccc(O)c(O)c2)oc2cc(O)cc(O)c12 [QUERCETIN] | – | – | Activity [3]: 79.4%; IC50 [4]: 3.23 µM |
| N/C(=N\O)c1ccc(NC(=O)Nc2ccc3[nH]ccc3c2)cc1 | 12.7 | 7.47 | – |
| NC(=NO)c1cccc(NC(=O)Nc2cccc(Cl)c2)c1 | 18.7 | 17.4 | – |
| COc1cccc(NC(=O)Nc2ccc(/C(N)=N/O)cc2)c1 | 18.2 | 9.15 | – |
| COc1ccc(NC(=O)Nc2cccc(/C(N)=N/O)c2)cc1 | 17.9 | 16.3 | – |
| Cc1cccc(NC(=O)Nc2cccc(/C(N)=N/O)c2)c1 | 10.6 | – | inhibition [1]: 42.5% |
| NC(=NO)c1cccc(NC(=O)Nc2ccccc2Cl)c1 | 15.4 | – | – |
| N/C(=N\O)c1cccc(NC(=O)Nc2cccc(Br)c2)c1 | 8.63 | 14.5 | – |
| Cc1ccc(NC(=O)Nc2cccc(/C(N)=N/O)c2)cc1 | 17.9 | – | inhibition [1]: 39.9% |
| N/C(=N\O)c1cccc(NC(=O)Nc2cccc(C(F)(F)F)c2)c1 | 10.5 | 17 | – |
| N/C(=N\O)c1ccc(NC(=O)Nc2ccc3ncccc3c2)cc1 | 13.2 | 6.94 | – |
| COc1ccccc1NC(=O)Nc1cccc(/C(N)=N/O)c1 | 15.2 | – | inhibition [1]: 49% |
| N/C(=N\O)c1ccc(NC(=O)Nc2ccc(Cl)cc2)cc1 | 14.6 | 7.65 | – |
| Cc1ccccc1NC(=O)Nc1cccc(/C(N)=N/O)c1 | 15.4 | 17.4 | – |
| NC(=NO)c1cccc(NC(=O)Nc2ccc([N+](=O)[O-])cc2)c1 | 17.6 | 16.3 | – |
| NC(=NO)c1cccc(NC(=O)Nc2ccc(Br)cc2)c1 | 14.6 | 16.8 | – |
| N/C(=N\O)c1cccc(NC(=O)Nc2ccccc2Cl)c1 | – | – | inhibition [1]: 49.2% |
| N/C(=N\O)c1cccc(NC(=O)Nc2ccc3[nH]ccc3c2)c1 | 15.9 | 6.24 | Activity [3]: 34.2%; IC50 [4]: 22.9 µM |
